Data as given in patent US20210300912A1 (Ikena Oncology, Inc., priority 2019, published 2021).
Where two headings read alike, the source gives them in different places.

Assays:
AHR [1] = target: T1, AHR (Homo sapiens, UniProt P35869); experiment: DRE-Luciferase Reporter Assay, HepG2, agonist; format: cell-based; conditions: HepG2 cells, agonist mode
T1 construct: endogenous in cells; host or cells: HepG2 (human), DRE-luciferase reporter stably or transiently transfected
T1 sequence (P35869 11-848): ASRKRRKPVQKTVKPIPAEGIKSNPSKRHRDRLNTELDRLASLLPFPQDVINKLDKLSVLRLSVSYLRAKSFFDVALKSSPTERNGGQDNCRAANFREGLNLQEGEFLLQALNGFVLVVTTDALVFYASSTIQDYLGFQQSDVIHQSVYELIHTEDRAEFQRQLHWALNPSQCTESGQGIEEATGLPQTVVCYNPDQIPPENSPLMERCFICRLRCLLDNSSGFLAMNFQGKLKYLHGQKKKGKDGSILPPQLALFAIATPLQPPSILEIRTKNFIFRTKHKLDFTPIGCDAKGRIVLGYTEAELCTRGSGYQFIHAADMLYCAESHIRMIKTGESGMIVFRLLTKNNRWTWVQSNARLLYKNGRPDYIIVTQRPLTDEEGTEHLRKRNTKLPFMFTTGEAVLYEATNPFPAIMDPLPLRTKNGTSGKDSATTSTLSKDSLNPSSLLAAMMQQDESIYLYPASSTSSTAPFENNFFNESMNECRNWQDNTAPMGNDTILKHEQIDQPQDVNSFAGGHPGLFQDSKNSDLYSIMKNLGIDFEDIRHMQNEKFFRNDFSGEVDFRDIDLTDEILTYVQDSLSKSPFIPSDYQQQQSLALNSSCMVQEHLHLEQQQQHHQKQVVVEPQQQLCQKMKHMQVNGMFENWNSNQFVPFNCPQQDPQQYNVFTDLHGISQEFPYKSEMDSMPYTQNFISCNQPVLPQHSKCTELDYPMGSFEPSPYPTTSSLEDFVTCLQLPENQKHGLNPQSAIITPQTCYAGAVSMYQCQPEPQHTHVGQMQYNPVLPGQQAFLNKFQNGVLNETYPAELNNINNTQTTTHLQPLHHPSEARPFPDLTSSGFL
Protocol: (§1) AHR binds to Dioxin Responsive Elements (DRE) upstream of genes that it activates. One measure of AHR activity is activation of a reporter gene, such as luciferase, downstream of one or multiple DRE elements. Luciferase activity will reflect activation and inhibition of AHR in the cells expressing this reporter.
(§2) Murine Hepa1-6 or Hepa-1c1c7 or other murine cell line with a DRE-luciferase reporter either stably or transiently transfected are plated in media in plates (96-well, 384-well or other plates) and incubated overnight at 37 C in a CO2 incubator. Likewise, human HepG2 or other human cell line with a DRE-luciferase reporter either stably or transiently transfected are plated in media in plates (96-well, 384-well or other plates) and incubated overnight at 37 C in a CO2 incubator.
(§3) The next day, an AHR agonist compound is added. Cells are incubated for 6, 16 or 24 hours or another time point and then lysed for determination of luciferase activity as a read-out of the AHR activation. Luciferase can be measured with a commercial kit such as the Promega Luciferase kit or any kit or reagents that provide the luciferin substrate for measuring luciferase activity. The level of luciferase with only activating ligand (e.g. such as TCDD, kynurenine, ITE (2-(1H-indole-3-ylcarbonyl)-4-thiazolecarboxylic methyl ester), VAF347, BNF (beta-naphthoflavone), ICZ (6-formylindolo(3,2-b) carbazole or other AHR ligands) added is the maximum signal while the luciferase with no ligand is the minimum signal. EC50s can be determined as the concentration which activates half of the maximum luciferase activity.

AHR [2] = target: T2, AHR (Mus musculus, UniProt P30561); experiment: DRE-Luciferase Reporter Assay, Hepa1.6, agonist; format: cell-based, murine; conditions: Hepa1.6 cells, agonist mode
T2 construct: endogenous in cells; host or cells: Hepa1-6 / Hepa1.6 (murine hepatoma); DRE-luciferase reporter transfected in A3, no transfection in A2
Protocol: as §1, §2, §3

[3] = Table 2, read-out: DRE-Luc HepG2 - Agonist: Average EC50
[4] = DRE-Luc Hepa1.6 - Agonist: Average EC50 (μM), Table 3
[5] = Table 3, read-out: DRE-Luc HepG2 - Agonist: Average EC50
[6] = Table 3, read-out: DRE-Luc Hepa1.6 - Agonist: Average EC50

T2 sequence (P30561 10-805 limits assumed): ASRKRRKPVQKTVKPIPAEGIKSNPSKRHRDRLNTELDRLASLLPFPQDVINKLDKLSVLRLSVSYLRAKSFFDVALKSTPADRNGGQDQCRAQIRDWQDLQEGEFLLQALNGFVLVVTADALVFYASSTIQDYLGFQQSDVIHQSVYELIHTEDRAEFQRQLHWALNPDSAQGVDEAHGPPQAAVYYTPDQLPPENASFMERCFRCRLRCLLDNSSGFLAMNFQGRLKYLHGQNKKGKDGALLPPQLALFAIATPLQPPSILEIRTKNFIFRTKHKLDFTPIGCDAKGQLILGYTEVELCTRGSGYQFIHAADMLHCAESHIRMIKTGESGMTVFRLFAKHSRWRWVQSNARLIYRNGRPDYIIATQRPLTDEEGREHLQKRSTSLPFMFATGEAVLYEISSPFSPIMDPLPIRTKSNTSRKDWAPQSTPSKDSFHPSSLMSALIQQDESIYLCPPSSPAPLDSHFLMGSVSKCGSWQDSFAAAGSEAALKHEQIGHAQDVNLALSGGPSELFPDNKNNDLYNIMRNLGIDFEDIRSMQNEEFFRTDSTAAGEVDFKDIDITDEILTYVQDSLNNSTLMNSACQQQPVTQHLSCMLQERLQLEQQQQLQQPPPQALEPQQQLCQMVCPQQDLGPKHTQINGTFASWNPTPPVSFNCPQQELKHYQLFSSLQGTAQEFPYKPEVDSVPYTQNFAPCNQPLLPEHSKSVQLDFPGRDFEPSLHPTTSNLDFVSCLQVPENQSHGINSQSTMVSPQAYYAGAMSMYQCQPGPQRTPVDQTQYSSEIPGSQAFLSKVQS
T2 sequence (P11499 whole entry partner): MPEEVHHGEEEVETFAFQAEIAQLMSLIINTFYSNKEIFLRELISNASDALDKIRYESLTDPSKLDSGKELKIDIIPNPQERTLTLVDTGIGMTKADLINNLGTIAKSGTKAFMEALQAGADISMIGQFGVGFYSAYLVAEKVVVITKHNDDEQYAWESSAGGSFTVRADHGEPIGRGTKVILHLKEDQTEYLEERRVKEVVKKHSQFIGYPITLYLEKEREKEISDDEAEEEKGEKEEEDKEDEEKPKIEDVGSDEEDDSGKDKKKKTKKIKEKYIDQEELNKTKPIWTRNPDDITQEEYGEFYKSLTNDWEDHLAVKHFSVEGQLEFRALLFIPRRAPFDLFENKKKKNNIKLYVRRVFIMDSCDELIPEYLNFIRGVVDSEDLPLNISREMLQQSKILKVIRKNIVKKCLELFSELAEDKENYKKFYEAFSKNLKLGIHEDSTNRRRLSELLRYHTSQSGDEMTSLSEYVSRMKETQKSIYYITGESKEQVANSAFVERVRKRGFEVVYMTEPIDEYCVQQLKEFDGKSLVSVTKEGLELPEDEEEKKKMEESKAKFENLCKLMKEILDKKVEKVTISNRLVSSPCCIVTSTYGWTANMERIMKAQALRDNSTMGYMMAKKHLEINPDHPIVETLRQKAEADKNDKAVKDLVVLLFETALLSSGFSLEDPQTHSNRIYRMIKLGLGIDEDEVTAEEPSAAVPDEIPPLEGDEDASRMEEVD
T2 sequence (O08915 whole entry partner): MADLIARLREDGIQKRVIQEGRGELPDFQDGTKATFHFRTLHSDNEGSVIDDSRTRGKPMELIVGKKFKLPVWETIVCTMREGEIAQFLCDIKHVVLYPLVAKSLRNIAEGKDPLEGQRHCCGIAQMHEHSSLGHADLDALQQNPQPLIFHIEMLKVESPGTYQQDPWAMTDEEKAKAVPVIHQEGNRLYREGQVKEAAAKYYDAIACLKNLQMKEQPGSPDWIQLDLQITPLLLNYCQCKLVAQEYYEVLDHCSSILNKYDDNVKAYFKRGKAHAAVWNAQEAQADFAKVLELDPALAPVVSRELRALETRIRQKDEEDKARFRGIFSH

Row | SMILES | EC50 (AHR [1]; [3]) [µM] | further results
1 | O=C(OCCO)c1csc(C(=O)c2c[nH]c3ccccc23)n1 [Compound P-9] | 0.1 to 1 | –
2 | COC(=O)c1ccc2c(C(=O)c3nc(C(C)C)cs3)c[nH]c2c1 [Compound I-58] | – | EC50 (AHR [2]; [4]): 0.01 to 0.1 µM; EC50 (AHR [1]; [5]): 0.01 to 0.1 µM
3 | COC(=O)c1nc(C(=O)c2c[nH]c3ccccc23)sc1Cl [Compound I-55] | – | EC50 (AHR [2]; [4]): 0.01 to 0.1 µM; EC50 (AHR [1]; [5]): < 0.01 µM
4 | COC(=O)c1csc(C(=O)c2c[nH]c3cc(OC)ccc23)n1 [Compound I-6] | 0.1 to 1 | –
5 | O=C(c1nc([C@H]2CC[C@H](O)CC2)cs1)c1c[nH]c2ccccc12 [Compound I-52] | – | EC50 (AHR [2]; [6]): > 1 µM; EC50 (AHR [1]; [5]): 0.01 to 0.1 µM
6 | CC(C)c1csc(C(=O)c2c[nH]c3cc(C(=O)OCCOCCO)ccc23)n1 [Compound I-94] | – | EC50 (AHR [2]; [6]): > 1 µM; EC50 (AHR [1]; [5]): > 1 µM
7 | CC(C)c1csc(C(=O)c2c[nH]c3ccc(C(=O)O)cc23)n1 [Compound I-78, 3-(4-Isopropylthiazole-2-carbonyl)-1H-indole-5-carboxylic acid] | – | EC50 (AHR [2]; [6]): > 1 µM; EC50 (AHR [1]; [5]): 0.1 to 1 µM
8 | CC(C)c1sc(C(=O)c2c[nH]c3ccccc23)nc1C(=O)O [Compound I-32] | > 1 | –
9 | COC(=O)c1csc([C@@H](O)c2c[nH]c3ccccc23)n1 [Compound P-15] | > 1 | –
10 | COC(=O)c1ccc2c(C(=O)c3nc(C(=O)OC)c(N)s3)c[nH]c2c1 [Compound I-96] | – | EC50 (AHR [2]; [4]): < 0.01 µM; EC50 (AHR [1]; [5]): < 0.01 µM
11 | CN(C)C(=O)c1csc(C(=O)c2c[nH]c3ccccc23)n1 [Compound I-3, 2-(1H-Indole-3-carbonyl)-N,N-dimethyl-thiazole-4-carboxamide] | 0.01 to 0.1 | –
12 | CCc1csc(C(=O)c2c[nH]c3ccccc23)n1 [Compound I-57] | – | EC50 (AHR [2]; [4]): < 0.01 µM; EC50 (AHR [1]; [5]): < 0.01 µM
13 | COC(=O)c1nc(C(=O)c2c[nH]c3ccccc23)sc1C [Compound P-1] | < 0.01 | –
14 | NC(=O)c1csc(C(=O)c2c[nH]c3ccccc23)n1 [Compound P-5] | 0.01 to 0.1 | –
15 | COC(=O)c1csc(C(=O)c2c[nH]c3cccnc23)n1 [Compound P-18] | > 1 | –
16 | COC(=O)c1csc(C(=O)c2c[nH]c3cccc(N)c23)n1 [Compound I-93] | – | EC50 (AHR [2]; [4]): 0.01 to 0.1 µM; EC50 (AHR [1]; [5]): 0.1 to 1 µM
17 | CNc1sc(C(=O)c2c[nH]c3ccccc23)nc1C(=O)OC [Compound I-84, Methyl 2-(1H-indole-3-carbonyl)-5-(methylamino)thiazole-4-carboxylate] | – | EC50 (AHR [2]; [4]): < 0.01 µM; EC50 (AHR [1]; [5]): < 0.01 µM
18 | CN(CCOCCO)C(=O)c1csc(C(=O)c2c[nH]c3ccccc23)n1 [Compound I-12] | 0.1 to 1 | –
19 | Cc1sc(C(=O)c2c[nH]c3ccccc23)nc1C(=O)OCCOCC[N+](C)(C)C [Compound I-1] | < 0.01 | –

Row | SMILES | EC50 (AHR [1]; [3]) [µM] | further results
20 | C[N+](C)(C)CCOCCOC(=O)c1csc(C(=O)c2c[nH]c3ccccc23)n1 [Compound I-24] | > 1 | –
21 | CO/N=C(/c1nc(C(=O)OC)cs1)c1c[nH]c2ccccc12 [Compound P-11] | > 1 | –
22 | COC(=O)c1nc(C(=O)c2c[nH]c3ccccc23)sc1C [Compound I-14] | 0.1 to 1 | –
23 | COC(=O)c1csc(C(=O)c2c[nH]c3cc(O)ccc23)n1 [Compound I-45] | > 1 | –
24 | CC(C)(C)OC(=O)NCCOCCNC(=O)c1csc(C(=O)c2c[nH]c3ccccc23)n1 [Compound I-41, tert-Butyl N-[2-[2-[[2-(1H-indole-3-carbonyl)thiazole-4-carbonyl]amino]ethoxy]ethyl]carbamate] | > 1 | –
25 | COC(=O)c1csc(C(=O)c2c[nH]c3ccc(OC)cc23)n1 [Compound P-7] | 0.1 to 1 | –
26 | O=C(NCCOCCO)c1csc(C(=O)c2c[nH]c3ccccc23)n1 [Compound I-13] | 0.1 to 1 | –
27 | COC(=O)c1csc([C@H](O)c2c[nH]c3ccccc23)n1 [Compound P-14] | > 1 | –
28 | COC(=O)c1csc(C(=O)c2n[nH]c3ccccc23)n1 [Compound P-17] | > 1 | –
29 | COC(=O)c1cnc(C(=O)c2c[nH]c3ccccc23)n1C [Compound I-33] | > 1 | –
30 | COC(=O)c1csc(C(=O)n2cnc3ccccc32)n1 [Compound I-27] | > 1 | –
31 | NCCOCCNC(=O)c1csc(C(=O)c2c[nH]c3ccccc23)n1 [Compound I-42] | > 1 | –
32 | COC(=O)c1csc(/C(=N/O)c2c[nH]c3ccccc23)n1 [Compound P-8] | 0.1 to 1 | –
33 | C[N+]1(C)CCN(C(=O)c2csc(C(=O)c3c[nH]c4ccccc34)n2)CC1 [Compound I-28] | > 1 | –
34 | COC(=O)c1csc(/C(=N\O)c2c[nH]c3ccccc23)n1 [Compound P-13] | > 1 | –
35 | CN(CCO)CCOC(=O)c1csc(C(=O)c2c[nH]c3ccccc23)n1 [Compound I-21] | > 1 | –
36 | COC(=O)c1csc(C(=O)c2cn(C)c3ccccc23)n1 [Compound P-16] | > 1 | –
37 | Cc1sc(C(=O)c2c[nH]c3ccccc23)nc1C(=O)NCCOCC[N+](C)(C)C [Compound I-16] | 0.1 to 1 | –
38 | CN1CCN(C(=O)c2csc(C(=O)c3c[nH]c4ccccc34)n2)CC1 [Compound I-25] | > 1 | –

Row | SMILES | EC50 (AHR [1]; [3]) [µM] | further results
39 | Cc1sc(C(=O)c2c[nH]c3ccccc23)nc1C(=O)NCCOCCN(C)C [Compound I-17] | 0.1 to 1 | –
40 | Cn1cc(C(=O)O)nc1C(=O)c1c[nH]c2ccccc12 [Compound I-43] | > 1 | –
41 | Cc1sc(C(=O)c2c[nH]c3ccccc23)nc1C(=O)O [Compound I-40] | > 1 | –
42 | COC(=O)c1nc(C(=O)c2c[nH]c3cccc(C)c23)sc1C [Compound I-15] | 0.1 to 1 | –
43 | CO/N=C(\c1nc(C(=O)OC)cs1)c1c[nH]c2ccccc12 [Compound P-10] | 0.1 to 1 | –
44 | Cn1c(C(=O)O)cnc1C(=O)c1c[nH]c2ccccc12 [Compound I-39] | > 1 | –
45 | O=C(O)CCOCCNC(=O)c1csc(C(=O)c2c[nH]c3ccccc23)n1 [Compound I-26] | > 1 | –
46 | O=C(O)COCCNC(=O)c1csc(C(=O)c2c[nH]c3ccccc23)n1 [Compound I-37] | > 1 | –
47 | COC(=O)c1csc(C(=O)c2c[nH]c3ccc(O)cc23)n1 [Compound I-44] | > 1 | –
48 | O=C(c1nc(C(=O)N2CCCCC2)cs1)c1c[nH]c2ccccc12 [Compound I-35, 1H-indol-3-yl-[4-(piperidine-1-carbonyl)thiazol-2-yl]methanone] | > 1 | –
49 | CN(C)CCOCCNC(=O)c1csc(C(=O)c2c[nH]c3ccccc23)n1 [Compound I-34, N-[2-[2-(Dimethylamino)ethoxy]ethyl]-2-(1H-indole-3-carbonyl)thiazole-4-carboxamide] | > 1 | –
50 | C[N+](C)(C)CCOCCNC(=O)c1csc(C(=O)c2c[nH]c3ccccc23)n1 [Compound I-22] | > 1 | –
51 | COC(=O)c1coc(C(=O)c2c[nH]c3ccccc23)n1 [Compound P-19] | > 1 | –
52 | COC(=O)c1nc(C(=O)c2c[nH]c3ccccc23)sc1C(C)C [Compound I-31] | > 1 | –
53 | O=C(O)c1coc(C(=O)c2c[nH]c3ccccc23)n1 [Compound I-38] | > 1 | –
54 | Cc1sc(C(=O)c2c[nH]c3ccccc23)nc1C(=O)NCCOCCO [Compound I-29, N-[2-(2-Hydroxyethoxy)ethyl]-2-(1H-indole-3-carbonyl)-5-methyl-thiazole-4-carboxamide] | > 1 | –
55 | O=C(OCCOCCO)c1csc(C(=O)c2c[nH]c3ccccc23)n1 [Compound P-6] | 0.1 to 1 | –
56 | COC(=O)c1cn(C)c(C(=O)c2c[nH]c3ccccc23)n1 [Compound I-30] | > 1 | –
57 | COC(=O)c1c[nH]c(C(=O)c2c[nH]c3ccccc23)n1 [Compound I-36] | > 1 | –
